Among the data in PubChem BioAssay (NCI) are GI50 and TGI values, retold here.

Holding throughout (assay): DTP human tumour cell line panel, 48 h
Assay [1] concerns 786-0 renal.
Assay [2] has as its system COLO 205 colon.
For assay [3], the system named is HL-60(TB) leukemia.
Assay [4] concerns HT29 colon.
Assay [5] has as its system MCF7 breast.
Assay [6] relates to SF-539 CNS.
In assay [7] the test system is SR leukemia.
The test system of assay [8] is T-47D breast.
Assay [9] has as its system U251 CNS.
Assay [10] relates to UACC-257 melanoma.

Where “and” joins values, the source holds several entries; their conditions need not be identical. Identical values can stand only once.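 Briefly, cells in 96-well plates were exposed to five compound concentrations for 48 h, and endpoints were estimated by linear interpolation. GI50: concentration for 50% inhibition of growth. Definition used: TGI = concentration required for complete inhibition of growth.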

As for `O=C(Nc1ccc(Cl)cc1F)c1ccccc1O`, the GI50 (in general, the concentration at which growth is held to half of that of the control) was 3.44 µM in assay [1]; 5.7 µM in assay [2]; 2.53 µM in assay [3]; 5.32 µM in [4]; 1.5 µM in [5]; 2.94 µM in assay [6]. Moreover, the GI50 was 5.73 µM in assay [7], 2.49 µM in [8], 3.42 µM in assay [9] and 2.9 µM in [10]. The TGI (in general, the concentration at which net growth stops) in [1] is more than 100 µM; in assay [2] it was 41.2 µM; in assay [3] it was 6.16 µM; in assay [4], 92.9 µM; in assay [5], 12.6 µM; in assay [6] it was 18.5 µM. Moreover, the TGI in assay [7] is more than 100 µM; in [8] it was more than 100 µM; in [9], more than 100 µM; in assay [10] it was 8.86 µM.

For `Cn1cc(CO)c2c1C(=O)C=C(N1CC1)C2=O`, the GI50 in assay [1] was less than 0.01 µM; in [2], less than 0.0187 µM; in [3], 2.68 µM; in assay [4], less than 0.0189 µM; in [5] it was less than 0.01 µM; in [6], less than 0.01 µM. The GI50 in assay [7] is less than 0.01 µM; in assay [8] it was 0.353 µM; in assay [9], less than 0.01 µM; in assay [10], 0.0198 µM. Further, the TGI in assay [1] is 0.108 µM; in assay [3], 18.1 µM; in assay [4], more than 57.3 µM; in [6], less than 0.01 µM; in [7], 0.0145 µM; in assay [8], 7.81 µM. For the same compound, the TGI in [9] was found to be 0.0726 µM; in [10], 0.0692 µM.

On to `CC(CCC=O)CCOCc1ccccc1` (configuration not stated), for which the TGI was more than 100 µM in [1]; more than 100 µM in assay [2]; 45.1 µM in assay [3]; more than 100 µM in assay [4]; 22.7 µM in [5]; more than 100 µM in assay [6]. Also, the TGI in assay [7] is more than 80.7 µM; in [8] it was more than 100 µM; in assay [9], more than 100 µM; in assay [10], more than 100 µM.

For `CS(=O)(=O)Nc1ccc2c(c1)oc(=O)c1ccccc12`, the TGI in assay [1], in assay [2], in assay [3], in assay [4], in [5] and in [6] was more than 100 µM each time. Moreover, the TGI in assay [7], in assay [8], in [9] and in [10] was more than 100 µM in each case.

Regarding `CC(C)=CCNc1ncnc2c1ncn2C1OC(CO)C(O)C1O` (configuration not stated), the GI50 is 1.37 µM in assay [1]; 3.96 µM in assay [2]; 0.29 µM in [3]; 1.34 µM in [4]; 0.624 µM in assay [5]; 2.22 µM in [6]. Also, the GI50 is 0.799 µM in [7], 0.983 µM in assay [8], 36.2 µM in assay [9] and more than 792 µM in assay [10]. Also, the TGI was 11.4 µM in [1]; 550 µM in assay [2]; 0.822 µM in assay [3]; more than 1000 µM in assay [4]; 12.3 µM in assay [5]; 7.65 µM in assay [6]. Moreover, the TGI in assay [7] was more than 334 µM; in assay [8] it was 3.92 µM; in assay [9] it was more than 1000 µM; in assay [10] it was more than 1000 µM.

As to `CC(O)CCC(=O)c1ccoc1` (configuration not stated), the TGI is more than 10000 µM in assay [1]; more than 8250 µM in assay [2]; 7890 µM in assay [3]; more than 10000 µM in assay [4]; more than 10000 µM in assay [5]; more than 10000 µM in assay [6]. The TGI in [7], in assay [8], in assay [9] and in [10] was more than 10000 µM in each case.

With `C=C1C(=O)O[C@@H]2C[C@@H]1CC/C(C)=C/CC/C(C)=C/CC[C@@]2(C)O`, the GI50 was 11.5 µM in [1]; 34.1 µM in [2]; 3.04 µM in assay [3]; 31 µM in assay [4]; 11.9 µM in assay [5]; 22.3 µM in assay [6]. Moreover, the GI50 was 1.63 µM in assay [7], 34.2 µM in assay [8], 18.4 µM in [9] and 17.5 µM in [10]. The TGI in assay [1] is 24 µM; in [2] it was 99.2 µM; in [3], 8.95 µM; in [4], more than 100 µM; in [5] it was 36.2 µM; in assay [6], 42.5 µM. Further, the TGI in assay [7] was 3.58 µM; in [8], more than 100 µM; in [9] it was 43.6 µM; in [10], 41.9 µM.

For `Cc1ccc(C)c(C2=C(c3cn(C)c4ccccc34)C(=O)NC2=O)c1`, the GI50 is more than 25 µM in assay [1]; 7.36 µM in assay [2]; 6.7 µM in assay [3]; more than 16 µM in assay [4]; 6.81 µM in assay [5]; more than 16.4 µM in assay [6]. Further, the GI50 in [7] was 5.05 µM; in assay [8], 14 µM; in assay [9] it was more than 25 µM; in assay [10] it was more than 25 µM. The TGI in assay [1] is more than 25 µM; in [2] it was more than 25 µM; in [3], 16.2 µM; in [4] it was more than 25 µM; in assay [5], more than 25 µM; in assay [6], more than 25 µM. Moreover, the TGI was more than 21 µM in assay [7], more than 25 µM in assay [8], more than 25 µM in [9] and more than 25 µM in assay [10].

Turning to `O=C1/C(=C/c2ccc(Br)cc2)COc2ccc(O)c(O)c21`, the GI50 in [1] is 0.678 µM; in assay [2], 1.53 µM; in assay [3] it was 0.442 µM; in assay [4], 2.3 µM; in assay [5] it was 0.353 µM; in assay [6], 0.436 µM. Moreover, the GI50 in [7] is 0.452 µM; in assay [8], 0.906 µM; in assay [9], 0.588 µM; in assay [10], 1.71 µM. The TGI in [1] was determined as 2.57 µM; in assay [2], 3.18 µM; in assay [3], 3.28 µM; in assay [4], 5.79 µM; in [5], 1.67 µM; in assay [6], 1.19 µM. In addition, the TGI in assay [7] is more than 100 µM; in assay [8], 3.16 µM; in assay [9], 2.04 µM; in [10] it was 6.78 µM.

Consider `C=COCCCOc1ccccc1`, for which the GI50 in assay [1], in assay [5], in [8] and in assay [10] was more than 100 µM throughout. Further, the TGI in assay [1], in [2], in [3], in [4], in [5] and in assay [6] was more than 100 µM each time. Besides, the TGI in assay [7], in [8], in assay [9] and in [10] was more than 100 µM throughout.

Turning to `CCN1CCN(C(c2ccc(C(F)(F)F)cc2)c2ccc3cccnc3c2O)CC1` (configuration not stated), the GI50 in [1] is 2.34 µM; in [2] it was 3.35 µM; in [3], 2.09 µM; in assay [4], 5.31 µM; in [5], 3.46 µM; in [6], 1.68 µM. The GI50 in assay [7] was 0.835 µM; in assay [8], 4.19 µM; in assay [9] it was 0.658 µM; in assay [10], 2.06 µM. In addition, the TGI worked out at 7.5 µM in [1]; 13.1 µM in [2]; 5.6 µM in assay [3]; 21 µM in [4]; 14.9 µM in assay [5]; 10.1 µM in assay [6]. The TGI in assay [7] was found to be 11 µM; in assay [8], 15.2 µM; in assay [9], 11.4 µM; in assay [10], 6.69 µM.

Turning to `O/N=C/C1C(OCc2ccccc2)C(OCc2ccccc2)C(OCc2ccccc2)CN1Cc1ccccc1` (configuration not stated), the TGI in assay [1] was 21.1 µM and > 100 µM; in assay [2], 25.2 µM; in assay [3], 80.4 µM; in assay [4], 78.7 µM and > 100 µM; in assay [5], 40.8 µM and 15.7 µM; in assay [6] it was more than 100 µM. Also, the TGI in [7] is more than 100 µM; in assay [8] it was more than 100 µM; in assay [9], 37.5 µM and > 100 µM; in assay [10], 72.5 µM and 15.7 µM. Besides, the GI50 is 12.3 µM in assay [2]; 10.7 µM and 3.59 µM in [4]; 9.88 µM and 2.9 µM in assay [5]; 8.3 µM and 2 µM in assay [7]; 23.3 µM and 2.45 µM in [10].

Consider `Cn1nc(N)c2cc([C@@H]3Nc4ccc5[nH]ncc5c4[C@H]4C5CCC(C5)[C@@H]34)ccc21` (some centres not stated), for which the GI50 in assay [1] is 0.586 µM; in assay [2], 0.431 µM; in [3], 0.381 µM; in [4], 0.387 µM; in assay [5] it was 0.327 µM; in [6] it was 0.333 µM. In addition, the GI50 in assay [7] was 0.426 µM; in assay [8], 0.471 µM; in assay [9], 0.618 µM; in [10], 15.9 µM. Besides, the TGI was 18.1 µM in [1]; 13 µM in assay [2]; 6.46 µM in assay [3]; more than 38.1 µM in assay [4]; 18.4 µM in [5]; 5.09 µM in assay [6]. The TGI was more than 100 µM in assay [7], 58.8 µM in [8], 23.2 µM in assay [9] and 59.5 µM in assay [10].

Take `C=C(CNCc1ccccc1)c1ccc(C(=O)Nc2ccccc2N)cc1`: the GI50 in assay [1] is 4.44 µM; in assay [2], 4.9 µM; in assay [3], 1.2 µM; in assay [5], 41.1 µM; in assay [6], 7.63 µM; in assay [7], 3.54 µM. Besides, the results for the GI50 in [8], in [9] and in [10] were 1.59 µM, 9.86 µM and 1.54 µM, respectively. The TGI in assay [1] was more than 100 µM; in assay [2] it was 38.5 µM; in [3], more than 100 µM; in [5], more than 100 µM; in [6] it was 55.2 µM; in assay [7] it was more than 100 µM. In addition, the figures for the TGI in assay [8], in assay [9] and in assay [10] were more than 100 µM, more than 100 µM and 15.5 µM, respectively.

Regarding `O=C(Nc1nc2ccc(C(F)(F)F)cc2s1)c1cc(Cl)ccc1O`, the GI50 in [1] is 2.14 µM; in assay [2] it was 1.38 µM; in assay [3], 1.04 µM; in [4], 2.1 µM; in assay [5], 2.18 µM; in assay [6], 1.49 µM. The GI50 was 1.24 µM in assay [7], 0.303 µM in assay [8], 1.44 µM in assay [9] and 0.646 µM in assay [10]. Besides, the TGI in assay [1] was 30.6 µM; in assay [2], 4 µM; in assay [3], 3.7 µM; in [4], 74.7 µM; in assay [5], more than 100 µM; in assay [6], more than 100 µM. In addition, the TGI in assay [7] is 20.1 µM; in assay [8], 2.96 µM; in assay [9] it was 26.9 µM; in assay [10], 5.53 µM.

Consider `NC(=Nc1c([N+](=O)[O-])cnc2ccccc12)N1CCOCC1`, for which the TGI in [1], in [2], in [3], in [4], in assay [5] and in [6] was more than 100 µM throughout. Also, the TGI in assay [7], in assay [8] and in [9] was more than 100 µM in each case.

Regarding `C=C1CC[C@@H]2[C@](C)(COC(C)=O)[C@H](OC(C)=O)CC[C@@]2(C)[C@@H]1CC(Sc1ccccc1)C1=CCOC1=O` (some centres not stated), the GI50 in assay [1] is 1.9 µM; in [2], 1.49 µM; in assay [3], 0.43 µM; in assay [4], 1.77 µM; in [5] it was 0.538 µM; in assay [7], 0.553 µM. Besides, the GI50 in [8] was 2.01 µM; in assay [9], 1.56 µM; in assay [10], 1.91 µM. The TGI in assay [1] came to 3.64 µM; in [2] it was 3.98 µM; in assay [3], 2.27 µM; in assay [4] it was 3.77 µM; in [5], 2.35 µM; in assay [7] it was 3.66 µM. For the same compound, the concentration for total growth inhibition (TGI) in [8] was 8.32 µM; in assay [9] it was 2.96 µM; in assay [10], 3.71 µM.
